Source: patent US11324752B2, “Imeglimin for preventing and/or treating hepatocellular carcinoma” (ERICARE, priority 2017, dated 2022)
“Also recorded” adds a separate entry of the source. Where a name gives a salt, the structure may show the parent alone.

Legend:
[1] = cited from earlier work
[2] = seven Phase 2 studies, 611 patients; cited from earlier work
HepG2 line = conditions: for growth in volume of grafted tumors compared to placebo control group: FIG. 1
Protocol: In vivo anti-tumor activity of imeglimin compared to that of metformin, alone or in combination with sorafenib, on subcutaneous xenograft models of the CHC HepG2 line in 6 week old female mice with a BALB/c nude genetic background (Harlan).
Two million cells of the HepG2 line are injected into the left side of each mouse in a volume of 100 μl (50 μl PBS-50 μl matrigel). Mice developing a palpable tumor are randomized into 7 groups of
treatment of 14 mice according to the following design: placebo, imeglimin 75 mg/kg/day, imeglimin 150 mg/kg/day, metformin 75 mg/kg/day, sorafenib 40 mg/kg/day, imeglimin 75 mg/kg/day+sorafenib 40 mg/kg/day, metformin 75 mg/kg/day+sorafenib 40 mg/kg/day.
Metformin and imeglimin are administered in drinking water, sorafenib is administered by oral gavage. Treatment begins on the day of randomization.
The treatments were administered for 63 days. The evolution curves of the tumor volumes, as well as those of the weight of the animals, were analyzed during this period. The appearance of tumors and organs has been the subject of a macroscopic anatomic-pathological analysis.

HepG2 [3] = test: MTS Promega cell proliferation assay, HepG2; format: cell-based, human; conditions: period of 6 days
Protocol: (§1) In vitro anti-proliferative effect of imeglimin compared to that of metformin in 2 models of human hepatocellular carcinoma (HCC). Determination of IC50 (median inhibitory concentration) by the MTS Promega™ cell proliferation assay (CellTiter 96™ AQueous Nonradioactive Cell Proliferation Assay Kit).
(§2) Different mM concentrations (0, 0.1, 0.25, 0.5, 1.0, 2.5, 5.0, 7.5, 10, 25, 50, 100) of imeglimin and metformin were tested in vitro on two human CHC cell lines, HepG2 and HuH7, over a period of 6 days.

HuH7 [4] = test: MTS Promega cell proliferation assay, HuH7; format: cell-based, human
Protocol: as §1, §2

mitochondrial I complex = conditions: cited from earlier work
[5] = seven Phase 1 studies, 216 subjects; cited from earlier work
[6] = STZ diabetic rat; 35 days; 50 and 100 mg/kg/day; cited from earlier work
HepG2 [7] = conditions: in vitro; cited from earlier work
HuH7 [8] = conditions: in vitro; cited from earlier work
[9] = in particular hepatocellular carcinoma; cited from earlier work
human liver tumor cells = conditions: immunocompromised mice; cited from earlier work
hepatocellular carcinoma = conditions: cited from earlier work
[10] = 1500 mg twice daily, similar to 850 mg of metformin twice daily

## C[C@H]1N=C(N(C)C)N=C(N)N1 [imeglimin, (6R)-(+)-4-dimethylamino-2-imino-6-methyl-1,2,5,6-tetrahydro-1,3,5-triazine hydrochloride]
[1]; [10]
  fasting glucose levels: improves
  hemoglobin A1c: improves
[1]; diabetic patients
  tolerance profile compared with metformin: greater than that of metformin
[2]
  tolerance and safety of use: excellent tolerance and safety of use similar to those of the placebo
HepG2 line; 75 mg/kg/day to 150 mg/kg/day, hydrochloride
  dose effect on tumor growth: dose-dependent inhibitory effect on tumor growth; also recorded: increases with the doubling of doses
HepG2 line; 63 days of treatment
  mean weight of the animals: did not change
  toxicity of treatment: did not prove to be toxic
  growth in volume of grafted tumors compared to placebo control group: slow down the growth in volume of grafted tumors
HepG2 line; imeglimin 150 mg/kg/day vs metformin 75 mg/kg/day (equipotent doses), hydrochloride
  effect on tumor volume compared with metformin: higher than metformin; also recorded: significantly greater than that of metformin
HepG2 line; imeglimin 150 mg/kg/day vs sorafenib 40 mg/kg/day, hydrochloride
  effect on tumor volume compared with sorafenib: not significantly different from sorafenib; also recorded: does not have a significantly different effect
HepG2 [3]
  change of inhibitory effect with time: increases with time
HuH7 [4]
  effect on HuH7 line compared with HepG2 line: much more marked
HuH7 [4]; period of 6 days
  change of inhibitory effect with time: increases with time
Mitochondrial I complex
  inhibition of mitochondrial I complex: does not inhibit
[5]
  administration safety and tolerance: excellent administration safety and tolerance
[6]
  HbA1c: significantly decreased
  fasting blood glucose: significantly decreased

## CN(C)C(=N)N=C(N)N [metformin]
HepG2 line; 63 days of treatment
  growth in volume of grafted tumors compared to placebo control group: slow down the growth in volume of grafted tumors
HepG2 [7]
  cell growth inhibitory activity: has cell growth inhibitory activity
HuH7 [8]
  cell growth inhibitory activity: has cell growth inhibitory activity
[9]
  cancers in treated patients with type 2 diabetes versus other anti-diabetic drugs: fewer cancers
Human liver tumor cells
  anti-cancer activity: exhibits anti-cancer activity

## CNC(=O)c1cc(Oc2ccc(NC(=O)Nc3ccc(Cl)c(C(F)(F)F)c3)cc2)ccn1 [sorafenib, reference compound]
HepG2 line; 63 days of treatment
  growth in volume of grafted tumors compared to placebo control group: slow down the growth in volume of grafted tumors
HepG2 line; sorafenib 40 mg/kg/day alone or with imeglimin 75 mg/kg/day
  anti-angiogenic effect, observation at sacrifice: exerts its anti-angiogenic properties
Hepatocellular carcinoma; patients with advanced hepatocellular carcinoma
  median survival time: 10.7 months
Hepatocellular carcinoma; sorafenib group
  most important side effects: Diarrhea, weight loss, hand-foot syndrome and hypophosphatemia
